Experimental data reported in ChEMBL document CHEMBL5042519, “Design and synthesis of marine sesterterpene analogues as novel estrogen receptor α degraders for breast cancer treatment” (Eur J Med Chem, 2022).
Structures can show the parent of a compound that is named as a salt. Active and inactive are the calls of the source. The rule behind the calls is not given here.

Experiments:
[1] = molecular target: T1, Estrogen receptor (Homo sapiens) (UniProt P03372); experiment: Induction of ERalpha degradation in human MCF7 cells assessed as decrease in ERalpha protein expression at 1 uM incubated for 24 hrs by Western blot analysis; assay type: cell-based
T1 sequence (whole entry): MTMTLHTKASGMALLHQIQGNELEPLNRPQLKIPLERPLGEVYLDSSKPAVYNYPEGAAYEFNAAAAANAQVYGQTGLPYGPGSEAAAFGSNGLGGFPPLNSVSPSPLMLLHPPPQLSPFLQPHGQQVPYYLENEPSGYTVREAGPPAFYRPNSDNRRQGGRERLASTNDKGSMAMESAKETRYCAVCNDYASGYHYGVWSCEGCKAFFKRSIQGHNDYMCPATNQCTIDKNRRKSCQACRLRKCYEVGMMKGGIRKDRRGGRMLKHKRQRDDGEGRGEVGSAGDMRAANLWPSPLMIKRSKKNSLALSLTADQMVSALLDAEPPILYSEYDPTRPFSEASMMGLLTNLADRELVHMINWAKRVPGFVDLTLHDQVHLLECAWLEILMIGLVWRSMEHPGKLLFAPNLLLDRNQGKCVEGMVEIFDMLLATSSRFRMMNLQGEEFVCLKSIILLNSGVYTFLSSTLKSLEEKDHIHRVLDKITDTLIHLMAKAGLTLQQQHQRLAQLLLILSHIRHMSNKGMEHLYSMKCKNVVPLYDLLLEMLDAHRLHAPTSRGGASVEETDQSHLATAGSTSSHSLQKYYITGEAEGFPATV

MCF7 [2] = experiment: Antiproliferative activity against human MCF7/ADR cells assessed as reduction in cell viability after 48 hrs by MTT assay; assay type: functional, cell-based; conditions: MCF7, 48 h
MDA-MB-231 = experiment: Antiproliferative activity against human MDA-MB-231 cells assessed as reduction in cell viability after 48 hrs by MTT assay; conditions: MDA-MB-231, 48 h
MCF7 [3] = experiment: Antiproliferative activity against human MCF7 cells assessed as reduction in cell viability after 48 hrs by MTT assay; assay type: functional, cell-based; conditions: MCF7, 48 h
[4] = Resistance index, ratio of IC50 for antiproliferative activity against human MCF7/ADR cells to IC50 for antiproliferative activity against human MCF7 cells; assay type: functional
[5] = Antiproliferative activity against human MCF-10A cells assessed as reduction in cell viability after 48 hrs by MTT assay; assay type: toxicity, cell-based
[6] = Selectivity index, ratio of IC50 for antiproliferative activity against human MCF-10A cells to IC50 for antiproliferative activity against human MDA-MB-231 cells by MTT assay; assay type: toxicity, cell-based; conditions: MCF-10A cells versus MDA-MB-231 cells, read-out: Ratio IC50

Row | Structure (SMILES) | Activity [1] | IC50 (MCF7 [2]) | IC50 (MDA-MB-231) | IC50 (MCF7 [3]) | Ratio IC50 [4] | IC50 at 48 h [5] | selectivity ratio [6]
1 | CC1=CC(=O)[C@H]2/C(C=O)=C\C[C@H]3[C@@H]([C@@H](C)/C=C/C(=O)OC45CC6CC(CC(C6)C4)C5)CC[C@]3(C)C[C@H]12 | Active | 610 nM | 950 nM | 590 nM | 1.03 |  | 
2 | CCCCCCCCCCOC(=O)/C=C\C=C/[C@H](C)[C@H]1CC[C@]2(C)C[C@@H]3C(C)=CC(=O)[C@H]3/C(C=O)=C\C[C@@H]12 |  | 1260 nM | 910 nM | 1850 nM | 0.68 |  | 
3 | CC1=CC(=O)[C@H]2/C(C=O)=C\C[C@H]3[C@@H]([C@@H](C)/C=C\C=C/C(=O)OCCOCCOCCOCCOC(=O)CC45CC6CC(CC(C6)C4)C5)CC[C@]3(C)C[C@H]12 | Active | 2030 nM | 1010 nM | 1260 nM | 1.61 |  | 
4 | CCCCCCOC(=O)/C=C\C=C/[C@H](C)[C@H]1CC[C@]2(C)C[C@@H]3C(C)=CC(=O)[C@H]3/C(C=O)=C\C[C@@H]12 | Active | 790 nM | 640 nM | 1040 nM | 0.76 | 1580 nM | 1.52
5 | CC1=CC(=O)[C@H]2/C(C=O)=C\C[C@H]3[C@@H]([C@@H](C)/C=C\C=C/C(=O)OCCOCCOC(=O)CC45CC6CC(CC(C6)C4)C5)CC[C@]3(C)C[C@H]12 | Active | 870 nM | 540 nM | 690 nM | 1.26 | 2400 nM | 3.48
6 | CC1=CC(=O)[C@H]2/C(C=O)=C\C[C@H]3[C@@H]([C@@H](C)/C=C/C(=O)OCCOCCOCCOCCOC(=O)CC45CC6CC(CC(C6)C4)C5)CC[C@]3(C)C[C@H]12 | Active | 860 nM | 930 nM | 960 nM | 0.9 |  | 
7 | CCCCCCCCCOC(=O)/C=C/[C@H](C)[C@H]1CC[C@]2(C)C[C@@H]3C(C)=CC(=O)[C@H]3/C(C=O)=C\C[C@@H]12 |  | 730 nM | 570 nM | 1810 nM | 0.4 |  | 
8 | CCCCCCCOC(=O)/C=C\C=C/[C@H](C)[C@H]1CC[C@]2(C)C[C@@H]3C(C)=CC(=O)[C@H]3/C(C=O)=C\C[C@@H]12 | Active | 940 nM | 690 nM | 1380 nM | 0.68 |  | 
9 | CC1=CC(=O)[C@H]2/C(C=O)=C\C[C@H]3[C@@H]([C@@H](C)/C=C/C(=O)OCCCCCCCCOC(=O)CC45CC6CC(CC(C6)C4)C5)CC[C@]3(C)C[C@H]12 |  | 1910 nM | 750 nM | 2870 nM | 0.67 |  | 
10 | CCCCCCCCCCOC(=O)/C=C/[C@H](C)[C@H]1CC[C@]2(C)C[C@@H]3C(C)=CC(=O)[C@H]3/C(C=O)=C\C[C@@H]12 |  | 1030 nM | 300 nM | 1660 nM | 0.62 | 2160 nM | 1.3
11 | CC1=CC(=O)[C@H]2/C(C=O)=C\C[C@H]3[C@@H]([C@@H](C)/C=C\C=C/C(=O)OC45CC6CC(CC(C6)C4)C5)CC[C@]3(C)C[C@H]12 | Active | 1040 nM | 1080 nM | 1080 nM | 0.96 |  | 
12 | CCCCOC(=O)/C=C/[C@H](C)[C@H]1CC[C@]2(C)C[C@@H]3C(C)=CC(=O)[C@H]3/C(C=O)=C\C[C@@H]12 |  | 1690 nM | 1470 nM | 2250 nM | 0.75 |  | 
13 | CCCCOC(=O)/C=C\C=C/[C@H](C)[C@H]1CC[C@]2(C)C[C@@H]3C(C)=CC(=O)[C@H]3/C(C=O)=C\C[C@@H]12 |  | 1860 nM | 1370 nM | 1450 nM | 1.28 |  | 
14 | COCCOCCOCCOC(=O)/C=C\C=C/[C@H](C)[C@H]1CC[C@]2(C)C[C@@H]3C(C)=CC(=O)[C@H]3/C(C=O)=C\C[C@@H]12 |  | 3260 nM | 2320 nM | 4850 nM | 0.67 |  | 
15 | COc1cccc2c1C(=O)c1c(O)c3c(c(O)c1C2=O)C[C@@](O)(C(=O)CO)C[C@@H]3O[C@H]1C[C@H](N)[C@H](O)[C@H](C)O1 [DOXORUBICIN HYDROCHLORIDE] |  |  |  |  |  | 860 nM | 
16 | CC1=CC(=O)[C@H]2/C(C=O)=C\C[C@H]3[C@@H]([C@@H](C)/C=C\C=C/C(=O)OCCOCCOOC(=O)CC45CC6CC(CC(C6)C4)C5)CC[C@]3(C)C[C@H]12 |  | > 10000 nM | > 10000 nM | > 10000 nM |  |  | 
17 | CC1=CC(=O)[C@H]2/C(C=O)=C\C[C@H]3[C@@H]([C@@H](C)/C=C/C(=O)OCCOCCOCCOC(=O)CC45CC6CC(CC(C6)C4)C5)CC[C@]3(C)C[C@H]12 | Active | 1150 nM | 730 nM | 1040 nM | 1.11 |  | 
18 | CC1=CC(=O)[C@H]2/C(C=O)=C\C[C@H]3[C@@H]([C@@H](C)/C=C\C=C/C(=O)OCCCOC(=O)CC45CC6CC(CC(C6)C4)C5)CC[C@]3(C)C[C@H]12 |  | 960 nM | 440 nM | 1450 nM | 0.66 |  | 
19 | CCCCCCCCCOC(=O)/C=C\C=C/[C@H](C)[C@H]1CC[C@]2(C)C[C@@H]3C(C)=CC(=O)[C@H]3/C(C=O)=C\C[C@@H]12 |  | 1120 nM | 770 nM | 2530 nM | 0.44 | 4830 nM | 1.91
20 | CC1=CC(=O)[C@H]2/C(C=O)=C\C[C@H]3[C@@H]([C@@H](C)/C=C/C(=O)OCCCOC(=O)CC45CC6CC(CC(C6)C4)C5)CC[C@]3(C)C[C@H]12 |  | 700 nM | 290 nM | 1820 nM | 0.38 |  | 
21 | CCCCCCCOC(=O)/C=C/[C@H](C)[C@H]1CC[C@]2(C)C[C@@H]3C(C)=CC(=O)[C@H]3/C(C=O)=C\C[C@@H]12 |  | 1280 nM | 970 nM | 2190 nM | 0.58 |  | 
22 | CC1=CC(=O)[C@H]2/C(C=O)=C\C[C@H]3[C@@H]([C@@H](C)/C=C\C=C/C(=O)OCCCCCCCCOC(=O)CC45CC6CC(CC(C6)C4)C5)CC[C@]3(C)C[C@H]12 |  | 1490 nM | 690 nM | 1760 nM | 0.85 |  | 
23 | CCCCCOC(=O)/C=C\C=C/[C@H](C)[C@H]1CC[C@]2(C)C[C@@H]3C(C)=CC(=O)[C@H]3/C(C=O)=C\C[C@@H]12 |  | 1370 nM | 1660 nM | 1840 nM | 0.74 |  | 
24 | CCCCCCOC(=O)/C=C/[C@H](C)[C@H]1CC[C@]2(C)C[C@@H]3C(C)=CC(=O)[C@H]3/C(C=O)=C\C[C@@H]12 |  | 1630 nM | 860 nM | 1840 nM | 0.89 |  | 
25 | CCCCCCCCOC(=O)/C=C/[C@H](C)[C@H]1CC[C@]2(C)C[C@@H]3C(C)=CC(=O)[C@H]3/C(C=O)=C\C[C@@H]12 |  | 520 nM | 420 nM | 1420 nM | 0.37 | 1570 nM | 1.11
26 | COCCOCCOCCOC(=O)/C=C/[C@H](C)[C@H]1CC[C@]2(C)C[C@@H]3C(C)=CC(=O)[C@H]3/C(C=O)=C\C[C@@H]12 |  | 2260 nM | 3160 nM | 3790 nM | 0.6 |  | 
27 | CC1=CC(=O)[C@H]2/C(C=O)=C\C[C@H]3[C@@H]([C@@H](C)/C=C/C(=O)OCCOCCOC(=O)CC45CC6CC(CC(C6)C4)C5)CC[C@]3(C)C[C@H]12 |  | 1110 nM | 770 nM | 1040 nM | 1.07 |  | 
28 | CCCCCCCCOC(=O)/C=C\C=C/[C@H](C)[C@H]1CC[C@]2(C)C[C@@H]3C(C)=CC(=O)[C@H]3/C(C=O)=C\C[C@@H]12 |  | 980 nM | 520 nM | 1780 nM | 0.55 |  | 
29 | CCCCCOC(=O)/C=C/[C@H](C)[C@H]1CC[C@]2(C)C[C@@H]3C(C)=CC(=O)[C@H]3/C(C=O)=C\C[C@@H]12 |  | 1980 nM | 2410 nM | 2950 nM | 0.67 |  | 
